Experimental data taken from patent publication US12202866B2, “Therapeutic nanoconjugates and uses thereof” (UNIVERSITAT AUTÒNOMA DE BARCELONA (UAB), priority 2017, dated 2025).
Marks after values point to notes of the source that are not given here.

What was measured:
CXCR4^+ SW1417 CRC cells = experiment: Internalization in CXCR4+ SW1417 CRC cells (flow cytometry, AMD3100 competition); assay type: cell-based, human; design: internalization measured by fluorescence emission using flow cytometry: dose or concentration left out as unconfirmed; settings: 1 hour exposure
Description: CXCR4+ SW1417-luc CRC cells were cultured in modified Eagle's medium (Gibco, Rockville, MD) supplemented with 10% fetal calf serum (Gibco), and incubated at 37° C. and 5% CO2 in a humidified atmosphere. […] Fluorescence emission was measured with a D detector (530/30 nm band pass filter). To assess specificity for CXCR4 receptor-mediated internalization, competition studies were performed incubating CRC SW1417 cells with the CXCR4 antagonist AMD3100 (Sigma Aldrich) in a 1:10 (protein:antagonist) molar ratio for 1 h before exposure to the nanoconjugate at […] for an additional hour.
The cells were washed in phosphate-buffered saline (Sigma-Aldrich). Live cells were recorded by TCS-SP5 confocal laser scanning microscopy (Leica Microsystems, Heidelberg, Germany) using a Plan Apo 63×/1.4 (oil HC×PL APO lambda blue) objective as described. To determine particle localization inside the cell, stacks of 10-20 sections forevery 0.5 μm of cell thickness were collected and three-dimensional models were generated using Imaris version 6.1.0 software (Bitplane, Zurich, Switzerland).

[1] = system: subcutaneous CXCR4^+ SW1417 CRC tumor; experiment: Induction of DNA double strand breaks and apoptosis in tumor tissue, SC SW1417 model; assay type: in vivo, mouse
Description: The SC SW1417 mouse model was used to determine the capacity of the nanoconjugate to induce DNA damage and apoptosis in tumor tissue, as well as the kinetics of CXCR4 expression in the membrane of tumor cells after treatment, regarding the fraction of CXCR4 expressing tumor cells and their intensity, since CXCR4^+ are the target cells for the nanoconjugate. […] The mice had been treated with equimolecular dosages of T22-GFP-H6, free oligo-FdU or Buffer, in which also were determined the levels of CXCR4 expression in tumor tissue at the different time points.

[2] = system: CXCR4^+ SW1417 CRC metastases; experiment: Prevention of metastasis protocol, SC+ORT CXCR4+ SW1417 CRC model; assay type: in vivo, NOD/SCID mice
Description: Thus, a SC+ORT model, was produced: when SC tumors reached a volume of 700 mm3, mice were sacrificed by cervical dislocation and tumours were excised, discarding the necrotic areas. Three hundred mg of viable tumour tissue was then cut into pieces and disaggregated in a mix of 0.05% trypsin (Invitrogen) and 100 mg/ml DNase (Sigma-Aldrich). The mix was pipetted 30 times, using a 10 ml pipette, and incubated for 10 minutes at 37° C. with shaking. It was then re-pipetted 30 times, using 10 ml, 3 ml and 1 ml pipettes, and re-incubated for 5 minutes at 37° C. with shaking. This re-pipetting step was then repeated. The obtained SW1417 single-cell suspension was filtered through a cell strainer and centrifuged at 1,000 g for 10 minutes before counting the cells. Then 2×10^6 cells, […] resuspended in 50 μl of media, were microinjected in the cecum of each mouse, following the method described above.
The SC+ORT metastatic CRC model developed in NOD/SCID mice was used to evaluate the capacity of the nanoconjugate for metastasis prevention.
At necropsy, the number and size of visible metastases in the organs where dissemination is expected in colorectal cancer (lymph nodes, liver, lung and peritoneum) were recorded for each mouse in all compared groups. Also the number of metastatic foci that emitted bioluminiscence (derived from the SW1417-luci CRC cells) were counted ex vivo in the target organs for metastasis, using the IVIS® 200-Spectrum (Perkin-Elmer). Samples for histopathological and immunohistochemical analyses were collected and processed. Two independent observers analyzed H&E stained samples to count the number and measure the size of all observed metastatic foci in three (metastasis prevention experiment) or six (regression of metastasis experiment) sections of each organ in each mouse. The images were taken and the measurements were performed with an Olympus microscope with the CellD Olympus software (v3.3). […] The obtained results were used to study a possible correlation between CXCR4^+ CCF and antimetastatic effect at the different sites.
In order to analyze differences between control and experimental groups of affected mice in metastatic rates at the different organs, Fisher's exact test was used. The Mann-Whitney test was used to compare number and size of metastatic foci in the affected organs among groups. All quantitative values were expressed as mean±SE and the statistical tests were performed using SPSS version 11.0 (IBM, New York, USA). Differences among groups was considered significant at a p<0.05.

[3] = Prevention protocol, 3 histology sections, mean + SE
[4] = versus free oligo-FdU mice, histology, end of experiment

For “T22-GFP-H6-FdU: nanoconjugate of T22-GFP-H6 protein nanoparticle covalently bound via maleimide linker to thiol-functionalized pentameric floxuridine oligonucleotide (oligo-FdU)”, the “internalization measured by fluorescence emission using flow cytometry” value (CXCR4^+ SW1417 CRC cells) was “internalized”, the “number of apoptotic figures in tumor tissue (Hoechst nuclear condensation or defragmentation)” value ([1]; 24 h after injection) was 13.9±0.5 and the “number of DSBs foci in tumors (anti-gH2AX IHC)” value ([1]; five hours after treatment) was 22.8±1.4. The “LN foci, mean foci number per mouse” value ([2]; Prevention protocol, 20 μg (or equimolecular) q3d x12 i.v., 3 histology sections, mean + SE) was 2.0 ± 0.4 ^a, the “Liver foci, mean foci number per mouse” value [2, 3] was 0.2 ± 0.1 ^b,c and the “Lung foci, mean foci number per mouse” value [2, 3] was 1.3 ± 0.9 ^d,e. For the same substance, the “Peritoneal foci, mean foci number per mouse” value [2, 3] was 0.4 ± 0.3 ^f,g, the “reduction in the size of peritoneal foci” value ([2]; compared to free oligo-FdU) was 2.4 fold and the “Metastasis Liver [%]” value ([2]; end of prevention experiment) was “[17]^a %”. For the same substance, the “Metastasis Liver, affected/total mice” value ([2]; end of prevention experiment) was 2/12, the “Metastasis Lung [%]” value ([2]; end of prevention experiment) was “[17]^b,c %” and the “Metastasis Lung, affected/total mice” value ([2]; end of prevention experiment) was 2/12. For the same substance, the “Metastasis Lymph nodes [%]” value ([2]; end of prevention experiment) was “[75] %”, the “Metastasis Lymph nodes, affected/total mice” value ([2]; end of prevention experiment) was 9/12 and the “Metastasis Peritoneal [%]” value ([2]; end of prevention experiment) was “[17]^d %”. The “Metastasis Peritoneal, affected/total mice” value ([2]; end of prevention experiment) was 2/12, the “metastasis development in liver and lung by ex vivo luminescence” value ([2]; end of prevention experiment) was “blocked metastasis development” and the “remaining CXCR4^+ CCF in liver, lung and peritoneal metastatic tissue (anti-CXCR4 IHC)” value ([2]; end of prevention experiment) was “higher reduction”. For the same substance, the “prevention of LN metastases” value ([2]; histology, end of experiment) was “did not prevent”, the “Metastasis Size, Liver” value ([2]; mean foci size) was 8.7 μm^2 × 10^−3 and the “Metastasis Size, Lung” value ([2]; mean foci size) was 15.1 μm^2 × 10^−3. The “Metastasis Size, Lymph nodes” value ([2]; mean foci size) was 79.3 μm^2 × 10^−3, the “Metastasis Size, Peritoneal” value ([2]; mean foci size) was 126.6 μm^2 × 10^−3 and the “Primary tumor Positive/#Mice” value ([2]; mice bearing a primary tumor out of total mice per group) was 12/12. For the same substance, the “Primary tumor [%]” value ([2]; percent of mice bearing a primary tumor) was “[100] %”, the “primary tumor growth by in vivo bioluminescence emission” value ([2]; prevention experiment, compared to buffer-treated mice) was “no significant inhibition” and the “reduction in the total number of metastases in liver or lung” value [2, 4] was 3.1-3.7 times. The “reduction in the total number of metastases in the peritoneum” value [2, 4] was 10.3 fold.
